The numbers were not newly measured in patent publication US8492403B2, “Bicyclic derivatives as modulators of voltage gated ion channels” (Vertex Pharmaceuticals Incorporated, priority 2005, dated 2013), which cites them from elsewhere.

The term IC50 denotes the midpoint of a concentration-inhibition curve.

In one data set the target is NaV 1.3 (Homo sapiens, UniProt Q9NY46). Conditions: read-out: TTX IC50; cited from earlier work.
Another data set has as its target NaV 1.8 (Homo sapiens, UniProt Q9Y5Y9). As to conditions: read-out: TTX IC50; cited from earlier work.
The conditions of data set [1]: neuropathic pain; cited from earlier work.

The structures appear in SMILES notation. A value given as a limit tells only on which side of the number the result lay.

Sequence of NaV 1.8 (Q9Y5Y9 whole entry, looked up): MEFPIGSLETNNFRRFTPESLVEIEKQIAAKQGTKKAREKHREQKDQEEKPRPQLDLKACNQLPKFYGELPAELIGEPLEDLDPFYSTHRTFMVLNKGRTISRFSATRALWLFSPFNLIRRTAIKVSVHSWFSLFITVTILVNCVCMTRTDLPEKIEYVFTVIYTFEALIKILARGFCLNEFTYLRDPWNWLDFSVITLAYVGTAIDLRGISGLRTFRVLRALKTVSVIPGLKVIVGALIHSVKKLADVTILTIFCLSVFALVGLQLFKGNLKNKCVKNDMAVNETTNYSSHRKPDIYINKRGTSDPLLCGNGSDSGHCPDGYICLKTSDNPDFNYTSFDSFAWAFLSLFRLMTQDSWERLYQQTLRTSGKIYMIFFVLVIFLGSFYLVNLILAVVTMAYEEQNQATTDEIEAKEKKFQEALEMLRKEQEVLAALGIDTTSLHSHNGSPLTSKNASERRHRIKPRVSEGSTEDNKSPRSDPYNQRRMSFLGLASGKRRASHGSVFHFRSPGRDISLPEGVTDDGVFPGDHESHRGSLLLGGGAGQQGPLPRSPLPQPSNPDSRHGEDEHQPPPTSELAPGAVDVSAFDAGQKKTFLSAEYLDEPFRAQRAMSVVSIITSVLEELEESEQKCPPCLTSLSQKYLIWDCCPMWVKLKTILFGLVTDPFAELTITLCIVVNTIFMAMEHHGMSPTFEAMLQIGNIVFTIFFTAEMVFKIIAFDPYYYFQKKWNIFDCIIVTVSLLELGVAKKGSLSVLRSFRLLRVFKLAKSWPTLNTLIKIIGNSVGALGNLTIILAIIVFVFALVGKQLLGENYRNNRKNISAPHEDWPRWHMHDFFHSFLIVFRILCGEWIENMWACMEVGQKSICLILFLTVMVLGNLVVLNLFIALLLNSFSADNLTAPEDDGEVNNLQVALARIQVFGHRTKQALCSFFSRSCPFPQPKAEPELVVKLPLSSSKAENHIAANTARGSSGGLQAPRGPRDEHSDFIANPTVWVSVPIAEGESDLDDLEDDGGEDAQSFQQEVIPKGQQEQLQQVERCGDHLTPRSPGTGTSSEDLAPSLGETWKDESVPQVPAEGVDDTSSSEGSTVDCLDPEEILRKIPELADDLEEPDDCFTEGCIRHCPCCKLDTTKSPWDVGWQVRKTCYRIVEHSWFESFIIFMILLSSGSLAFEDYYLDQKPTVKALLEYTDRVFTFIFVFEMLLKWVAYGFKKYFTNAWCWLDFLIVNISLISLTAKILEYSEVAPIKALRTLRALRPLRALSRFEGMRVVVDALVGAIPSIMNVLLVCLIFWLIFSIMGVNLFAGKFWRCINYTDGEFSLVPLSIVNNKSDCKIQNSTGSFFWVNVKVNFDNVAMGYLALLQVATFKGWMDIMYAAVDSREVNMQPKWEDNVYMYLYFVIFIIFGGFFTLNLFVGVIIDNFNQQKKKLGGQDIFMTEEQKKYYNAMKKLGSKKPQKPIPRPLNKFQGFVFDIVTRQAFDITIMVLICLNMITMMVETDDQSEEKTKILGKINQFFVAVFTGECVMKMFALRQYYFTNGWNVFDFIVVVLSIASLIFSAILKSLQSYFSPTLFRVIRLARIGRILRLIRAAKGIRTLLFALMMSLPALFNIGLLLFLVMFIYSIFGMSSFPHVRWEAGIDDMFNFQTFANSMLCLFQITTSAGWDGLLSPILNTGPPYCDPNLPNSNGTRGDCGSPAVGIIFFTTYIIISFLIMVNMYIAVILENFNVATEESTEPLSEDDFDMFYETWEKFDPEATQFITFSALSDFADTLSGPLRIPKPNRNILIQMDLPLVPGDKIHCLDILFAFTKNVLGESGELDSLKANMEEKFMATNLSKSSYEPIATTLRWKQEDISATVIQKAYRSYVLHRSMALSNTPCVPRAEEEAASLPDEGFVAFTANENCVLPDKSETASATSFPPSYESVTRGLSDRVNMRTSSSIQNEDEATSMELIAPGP
Sequence of NaV 1.3 (Q9NY46 whole entry, looked up): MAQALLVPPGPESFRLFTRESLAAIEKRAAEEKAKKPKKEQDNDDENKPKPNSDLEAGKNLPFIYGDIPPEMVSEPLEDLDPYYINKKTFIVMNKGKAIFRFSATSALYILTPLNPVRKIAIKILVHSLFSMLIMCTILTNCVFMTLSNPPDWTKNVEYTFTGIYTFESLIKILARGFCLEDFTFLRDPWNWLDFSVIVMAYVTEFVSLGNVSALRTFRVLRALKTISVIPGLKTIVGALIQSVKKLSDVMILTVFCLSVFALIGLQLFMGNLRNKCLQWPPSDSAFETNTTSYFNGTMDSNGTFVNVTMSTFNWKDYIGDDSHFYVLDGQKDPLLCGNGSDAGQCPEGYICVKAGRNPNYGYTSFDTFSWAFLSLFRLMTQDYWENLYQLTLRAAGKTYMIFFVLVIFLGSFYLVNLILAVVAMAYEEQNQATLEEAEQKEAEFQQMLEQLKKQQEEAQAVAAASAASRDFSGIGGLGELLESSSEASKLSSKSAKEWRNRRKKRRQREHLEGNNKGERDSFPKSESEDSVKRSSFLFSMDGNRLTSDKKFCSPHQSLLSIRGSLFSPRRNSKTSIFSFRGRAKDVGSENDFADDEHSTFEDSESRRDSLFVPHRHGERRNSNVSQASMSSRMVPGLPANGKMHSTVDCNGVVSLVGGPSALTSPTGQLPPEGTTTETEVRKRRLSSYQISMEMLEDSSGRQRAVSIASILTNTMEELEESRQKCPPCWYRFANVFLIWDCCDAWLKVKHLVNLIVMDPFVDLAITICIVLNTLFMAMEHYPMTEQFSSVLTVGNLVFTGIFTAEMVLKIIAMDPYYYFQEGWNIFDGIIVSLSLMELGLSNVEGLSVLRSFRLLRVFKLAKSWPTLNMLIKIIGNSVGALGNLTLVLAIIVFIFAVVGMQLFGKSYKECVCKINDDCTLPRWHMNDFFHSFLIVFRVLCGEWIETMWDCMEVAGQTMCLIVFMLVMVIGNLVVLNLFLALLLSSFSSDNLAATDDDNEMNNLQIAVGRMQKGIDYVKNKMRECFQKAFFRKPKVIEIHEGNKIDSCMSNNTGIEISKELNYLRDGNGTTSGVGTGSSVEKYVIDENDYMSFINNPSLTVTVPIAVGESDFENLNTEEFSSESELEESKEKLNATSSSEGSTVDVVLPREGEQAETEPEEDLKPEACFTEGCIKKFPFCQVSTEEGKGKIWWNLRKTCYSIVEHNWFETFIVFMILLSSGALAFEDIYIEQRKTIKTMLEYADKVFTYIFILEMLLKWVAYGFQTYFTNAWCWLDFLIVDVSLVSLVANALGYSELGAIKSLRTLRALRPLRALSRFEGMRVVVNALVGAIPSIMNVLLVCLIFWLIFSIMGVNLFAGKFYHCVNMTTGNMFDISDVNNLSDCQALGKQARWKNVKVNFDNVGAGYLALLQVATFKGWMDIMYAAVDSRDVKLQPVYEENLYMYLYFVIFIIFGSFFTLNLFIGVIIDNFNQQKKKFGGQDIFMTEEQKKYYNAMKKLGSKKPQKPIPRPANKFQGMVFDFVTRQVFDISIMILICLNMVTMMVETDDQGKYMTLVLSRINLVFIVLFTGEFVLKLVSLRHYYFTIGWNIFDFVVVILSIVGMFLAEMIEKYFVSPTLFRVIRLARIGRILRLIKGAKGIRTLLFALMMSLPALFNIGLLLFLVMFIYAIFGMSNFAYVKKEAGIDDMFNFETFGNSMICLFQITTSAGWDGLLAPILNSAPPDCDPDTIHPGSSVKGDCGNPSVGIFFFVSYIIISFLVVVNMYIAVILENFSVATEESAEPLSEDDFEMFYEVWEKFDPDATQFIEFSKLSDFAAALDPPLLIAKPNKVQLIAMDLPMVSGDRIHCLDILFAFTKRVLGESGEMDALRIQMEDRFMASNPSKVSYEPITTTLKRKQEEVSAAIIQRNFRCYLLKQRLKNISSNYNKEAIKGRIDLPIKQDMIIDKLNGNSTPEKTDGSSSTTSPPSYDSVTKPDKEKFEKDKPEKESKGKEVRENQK

On to `NC1=N[C@H](O)[C@H]2[C@H]3O[C@]4(O)O[C@@H]([C@@H](O)[C@@]2(N1)[C@@H]4O)[C@]3(O)CO` [TTX, tetrodotoxin], for which the IC50 was 15 nM at NaV 1.3 and more than 50000 nM at NaV 1.8.

Consider `NCC1(CC(=O)O)CCCCC1` [Gabapentin], for which the “share of patients in which it works” value in data set [1] is 60%.
